“And” between values parts separate entries of the source, which are not always exact repeats. Equal entries are not always repeated.

The target in one data set is T1, PDE10A (Homo sapiens, UniProt Q9Y233).
T1 construct: purchased Biocrea GmbH, Radebeul, Germany; host or cells: SF21 insect cells (PDE10A-transfected; baculovirus system is mentioned)
Briefly: Homologous competitive binding on membrane homogenates of PDE10A-transfected SF21 cells. As to the method: The dissociation constant KD of [^18F]IV was determined in homologous competitive binding experiments by nonlinear regression analysis. Cell membrane homogenates from PDE10A-transfected SF21 cells (100 µg protein/mL incubation volume) were incubated with solutions of six concentrations of IV (working concentration 10 pM–[…]), each spiked with a fixed concentration of [^18F]IV (working concentration 0.05–0.1 nM).
Crude membrane homogenates isolated from PDE10A-transfected SF21 cells were obtained from Biocrea GmbH, Radebeul, Germany. For competitive radioligand displacement experiments (n = 2), the membrane preparations were diluted with incubation buffer (50 mM Tris-HCl, pH 7.4 at room temperature, 5 mM MgCl2) and re-homogenized by passing through a 27-gauge needle. The protein (100 µg) was incubated with 0.05–0.1 nM of [^18F]IV and different concentrations of IV (10 pM–1 µM), diluted from a 10 mM stock in DMSO, at a final volume of 1 mL. Nonspecific binding was determined in the presence of 10 µM of I, and control incubation was carried out accordingly using crude membrane preparations obtained from non-transfected SF21 cells.
Incubation at room temperature was terminated after 120 min by rapid filtration (Brandel 48-channel harvester; Biomedical Research and Development Lab. Inc., Gaithersburg, MD, USA) on Whatman GF/B glass-fiber filters, pre-soaked for 90 min in 0.3% polyethylenimine (Sigma, Deisenhofen, Germany), followed by washing four times with 4 mL of ice-cold wash buffer (50 mM Tris-HCl, pH 7.4 at 4 °C). Filter-bound radioactivity was quantified using a calibrated γ-counter (Wallac WIZARD, Perkin Elmer, Waltham, MA, USA).
Each experiment was carried out in triplicate. The binding parameter IC50 was estimated using iterative non-linear curve fitting. KD of [^18F]IV was estimated directly from homologous competition curve with KD = IC50-[radioligand] as well as from the respective saturation isotherm by nonlinear regression analysis.

Data set [1] is described as follows: Radioligand stability in vivo (metabolism in brain, plasma, urine). Details: species or system CD-1 mice. To be noted: mice. As to the method:
The metabolic fate of [^18F]IV was investigated in brain, plasma and urine samples of CD1-mice at 30 and 60 min p.i. Proteins were precipitated with acetonitrile and extraction efficiencies of 96.4% for brain homogenate, 90.2% for plasma and 89.4% for urine were obtained, indicating sufficient recovery rates. The supernatants of each material were analyzed by radio-TLC and analytical radio-HPLC, whereof two representative chromatograms are given in Figure 4.
A single lipophilic metabolite was detected representing only 4.2% of total radioactivity at 60 min p.i. Therefore a major impairment of the imaging properties of [^18F]IV in vivo should not be expected. The same radiometabolite was detected in plasma with 23.5% and 22.0% of the total radioactivity at 30 and 60 min p.i., while the parent radiotracer [^18F]IV accounted for 69.5% and 70.1%, respectively.
In urine the metabolic profile is distinctly different. While the non-metabolized [^18F]IV and the single plasma- and brain-related radiometabolite accounted for only ~1% of the total radioactivity in urine, further radiometabolites were detected. The main three of them represent 11%, 12% and 44% of the total radioactivity. In contrast to brain and plasma samples, in urine free [^18F]fluoride could be detected, although at a low level of only ~5% of total radioactivity.
After injection via the tail vein of ~150 MBq of [^18F]IV in […] isotonic solution, mice were sacrificed at 30 or 60 min p.i. (n = 2 per time). Urine and blood samples were obtained, and whole brains were isolated and homogenized in 50 mM TRIS-HCl, pH 7.4/4 °C, in a borosilicate glass cylinder by 10 strokes of a PTFE plunge at a speed of 1,000 rpm using a Potter S Homogenizer (B. Braun Melsungen AG, Germany). Plasma samples were obtained by centrifugation of blood at 2,000 g and 4 °C for 10 min. Extractions of brain homogenate, plasma and urine samples were done by treatment with ice-old acetonitrile (1:5 v/v; 2 min vortex mixing, Vortex-Genie 2, Scientific Industries Inc., NY, USA; 10 min incubation on ice) and centrifugation (6,000 rpm, 4 °C, 5 min; EBA 12R, Andreas Hettich GmbH & Co. KG, Tuttlingen, Germany). The supernatants were stored separately. Sediments of brain and plasma samples were re-suspended in 500 μL ice-cold acetonitrile and extraction was repeated. Supernatants of each specimen were combined and slowly evaporated at 70 °C under nitrogen stream. […]

T1 sequence (Q9Y233 whole entry, species assumed): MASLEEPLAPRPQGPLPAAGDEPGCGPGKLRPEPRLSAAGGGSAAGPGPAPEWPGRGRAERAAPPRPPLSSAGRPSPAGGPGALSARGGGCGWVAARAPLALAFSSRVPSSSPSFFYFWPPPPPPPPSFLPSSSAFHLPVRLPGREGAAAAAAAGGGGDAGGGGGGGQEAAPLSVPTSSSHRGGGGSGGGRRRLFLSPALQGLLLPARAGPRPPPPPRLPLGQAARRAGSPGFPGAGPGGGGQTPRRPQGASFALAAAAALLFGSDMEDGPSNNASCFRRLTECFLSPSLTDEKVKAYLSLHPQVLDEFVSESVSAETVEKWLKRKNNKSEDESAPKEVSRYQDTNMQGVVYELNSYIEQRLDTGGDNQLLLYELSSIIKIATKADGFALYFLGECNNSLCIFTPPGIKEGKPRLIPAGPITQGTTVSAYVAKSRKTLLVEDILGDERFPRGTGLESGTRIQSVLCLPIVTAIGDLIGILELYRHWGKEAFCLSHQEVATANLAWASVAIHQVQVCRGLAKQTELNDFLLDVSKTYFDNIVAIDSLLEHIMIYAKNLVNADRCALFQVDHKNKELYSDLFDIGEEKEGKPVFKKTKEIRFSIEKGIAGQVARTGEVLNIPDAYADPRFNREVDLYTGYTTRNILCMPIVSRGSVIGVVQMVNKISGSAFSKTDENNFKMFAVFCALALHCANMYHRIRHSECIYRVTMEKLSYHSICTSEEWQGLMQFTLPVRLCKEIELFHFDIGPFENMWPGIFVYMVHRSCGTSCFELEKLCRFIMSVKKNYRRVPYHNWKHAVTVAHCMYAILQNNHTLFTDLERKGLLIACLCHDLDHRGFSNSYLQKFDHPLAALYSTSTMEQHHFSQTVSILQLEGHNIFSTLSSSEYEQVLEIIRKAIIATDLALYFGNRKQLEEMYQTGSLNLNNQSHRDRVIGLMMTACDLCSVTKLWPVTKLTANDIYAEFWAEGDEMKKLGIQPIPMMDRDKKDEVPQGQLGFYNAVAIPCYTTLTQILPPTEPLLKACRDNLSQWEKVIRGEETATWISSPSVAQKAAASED

Turning to `COc1cc2c(N3CC[C@@H](Oc4cnc5ccccc5n4)C3)ncnc2cc1OCC[18F]` [[^18F]IV, (R)-7-(2-[^18F]Fluoroethoxy)-6-methoxy-4-(3-(quinoxalin-2-yloxy)pyrrolidin-1-yl)quinazoline], the dissociation constant Kd (as a rule, a measure of binding affinity in units of concentration) is 14 nM and ~14 nM at PDE10A (mean, n = 2, calculated from homologous competition); 15.9 nM and 11.6 nM on PDE10A (single experiments (n = 2)). Besides, the “parent [18F]IV, share of total radioactivity” value came out at 94.3% in data set [1] (brain, 30 min p.i.); 93.1% in data set [1] (brain, 60 min p.i.); 69.5% in data set [1] (plasma, 30 min p.i.); 70.1% in data set [1] (plasma, 60 min p.i.).

The record behind these values is paper PMC3763632, “Radiosynthesis and Radiotracer Properties of a 7-(2-[^18F]Fluoroethoxy)-6-methoxypyrrolidinylquinazoline for Imaging of Phosphodiesterase 10A with PET” (Pharmaceuticals, 2012).
